Test results: patent US9707233B2, “Heterocyclylamines as PI3K inhibitors” (Incyte Corporation, priority 2011, dated 2017)

Target: PI3Kδ (p110δ/p85α) (Homo sapiens (Human), UniProt O00329)
Experiment: PI3Kδ scintillation proximity assay (Example A3)
Format: biochemical
Conditions: 20 μM ATP, 20 μM PIP2, 4 nM PI3Kδ; read-out: PI3Kδ SPA IC50
Procedure, shortened: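 Human PI3Kδ (p110δ/p85α, 4 nM) with 20 μM PIP2 and 20 μM ATP plus [γ-33P]ATP in 20 mM MOPS pH 6.7, 10 mM MgCl2, 5 mM DTT, 0.03% CHAPS, 0.5% DMSO, room temperature. Reaction stopped with EDTA/excess ATP; product captured on WGA SPA beads and counted. IC50 from percent control activity vs log inhibitor.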

Chain of PI3Kδ (p110δ/p85α) (O00329 whole entry): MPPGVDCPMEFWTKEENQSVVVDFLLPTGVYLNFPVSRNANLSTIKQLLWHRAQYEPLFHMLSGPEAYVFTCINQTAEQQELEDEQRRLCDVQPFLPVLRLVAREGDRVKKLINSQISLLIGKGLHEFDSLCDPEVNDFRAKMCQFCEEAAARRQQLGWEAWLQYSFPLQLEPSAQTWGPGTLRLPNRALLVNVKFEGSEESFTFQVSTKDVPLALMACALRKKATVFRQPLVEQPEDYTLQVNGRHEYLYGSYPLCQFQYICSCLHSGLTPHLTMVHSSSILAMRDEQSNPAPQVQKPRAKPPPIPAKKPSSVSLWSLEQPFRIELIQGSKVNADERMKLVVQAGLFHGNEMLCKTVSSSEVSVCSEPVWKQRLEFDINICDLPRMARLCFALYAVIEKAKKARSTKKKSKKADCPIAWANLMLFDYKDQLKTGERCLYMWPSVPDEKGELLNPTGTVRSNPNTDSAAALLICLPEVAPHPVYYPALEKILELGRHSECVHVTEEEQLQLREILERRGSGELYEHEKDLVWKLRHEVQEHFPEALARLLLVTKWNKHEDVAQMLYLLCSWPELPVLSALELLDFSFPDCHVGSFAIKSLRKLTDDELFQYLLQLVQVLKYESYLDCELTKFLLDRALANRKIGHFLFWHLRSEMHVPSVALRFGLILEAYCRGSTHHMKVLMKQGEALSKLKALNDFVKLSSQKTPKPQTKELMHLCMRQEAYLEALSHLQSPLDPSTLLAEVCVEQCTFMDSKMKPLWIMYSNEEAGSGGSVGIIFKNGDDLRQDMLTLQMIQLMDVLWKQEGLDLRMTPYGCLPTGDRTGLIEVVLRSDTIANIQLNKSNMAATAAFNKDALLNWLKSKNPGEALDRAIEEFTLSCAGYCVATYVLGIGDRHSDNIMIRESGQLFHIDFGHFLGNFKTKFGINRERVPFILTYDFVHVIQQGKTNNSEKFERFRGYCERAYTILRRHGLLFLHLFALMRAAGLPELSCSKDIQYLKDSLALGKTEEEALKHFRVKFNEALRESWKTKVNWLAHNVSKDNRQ
Chain of PI3Kδ (p110δ/p85α) (P27986 whole entry partner): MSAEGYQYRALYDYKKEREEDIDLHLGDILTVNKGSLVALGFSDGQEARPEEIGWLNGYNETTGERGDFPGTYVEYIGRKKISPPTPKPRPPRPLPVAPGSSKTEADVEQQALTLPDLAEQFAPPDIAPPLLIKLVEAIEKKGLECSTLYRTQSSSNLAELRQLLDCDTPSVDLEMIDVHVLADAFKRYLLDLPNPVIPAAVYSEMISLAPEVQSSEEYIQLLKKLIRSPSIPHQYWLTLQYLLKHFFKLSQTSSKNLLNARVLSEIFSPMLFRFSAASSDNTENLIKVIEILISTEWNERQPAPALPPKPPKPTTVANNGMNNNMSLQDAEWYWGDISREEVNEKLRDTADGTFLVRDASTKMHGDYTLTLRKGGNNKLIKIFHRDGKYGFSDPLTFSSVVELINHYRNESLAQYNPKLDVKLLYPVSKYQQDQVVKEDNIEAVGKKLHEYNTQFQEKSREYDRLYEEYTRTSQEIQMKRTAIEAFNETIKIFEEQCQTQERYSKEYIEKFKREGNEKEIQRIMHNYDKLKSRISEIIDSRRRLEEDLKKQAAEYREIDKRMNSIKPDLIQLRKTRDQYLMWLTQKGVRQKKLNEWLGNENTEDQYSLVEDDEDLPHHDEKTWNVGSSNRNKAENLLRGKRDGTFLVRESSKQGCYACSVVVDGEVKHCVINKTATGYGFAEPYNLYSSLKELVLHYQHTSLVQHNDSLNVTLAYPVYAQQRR

SMILES	IC50 [nM]
CCOc1c(C(C)n2nc(C3CC3)c3c(N)ncnc32)cc(Cl)c(C)c1-c1ccc(C(=O)N(C)C)nc1 (racemic) [Example 53, 5-{3-[1-(4-amino-3-cyclopropyl-1H-pyrazolo[3,4-d]pyrimidin-1-yl)ethyl]-5-chloro-2-ethoxy-6-methylphenyl}-N,N-dimethylpyridine-2-carboxamide bis(trifluoroacetate)]	≤ 10
COc1c(C(C)n2ccc(=O)c3c(N)ncnc32)cc(Cl)c(C)c1-c1cncnc1 (racemic) [Example 29, 4-Amino-8-[1-(5-chloro-2-methoxy-4-methyl-3-pyrimidin-5-ylphenyl)ethyl]pyrido[2,3-d]pyrimidin-5(8H)-one bis(trifluoroacetate)]	≤ 10
COc1c(C(C)n2nc(C)c3c(N)ncnc32)cc(Cl)c(C)c1-c1ccc(N)nc1 (single isomer, unassigned) [Example 171, 1-(1-(3-(6-aminopyridin-3-yl)-5-chloro-2-methoxy-4-methylphenyl)ethyl)-3-methyl-1H-pyrazolo[3,4-d]pyrimidin-4-amine]	≤ 10
CCS(=O)(=O)N1CC(c2c(C#N)c(Cl)cc(C(C)n3nc(C)c4c(N)ncnc43)c2OC)C1 (single isomer, unassigned) [Example 286, 4-[1-(4-Amino-3-methyl-1H-pyrazolo[3,4-d]pyrimidin-1-yl)ethyl]-6-chloro-2-[1-(ethylsulfonyl)azetidin-3-yl]-3-methoxybenzonitrile]	≤ 10
CCOc1c(C(C)n2nc(CNC)c3c(N)ncnc32)cc(Cl)c(C)c1-c1ccc(C(=O)N(C)C)nc1 (racemic) [Example 84, 5-[3-(1-{4-Amino-3-[(methylamino)methyl]-1H-pyrazolo[3,4-d]pyrimidin-1-yl}ethyl)-5-chloro-2-ethoxy-6-methylphenyl]-N,N-dimethylpyridine-2-carboxamide tris(trifluoroacetate)]	50 to 200
CCOc1c(C(C)n2nc(C)c3c(N)ncnc32)cc(Cl)c(C#N)c1C1CN(CC(F)(F)F)C1 (single isomer, unassigned) [Example 233, 4-[1-(4-Amino-3-methyl-1H-pyrazolo[3,4-d]pyrimidin-1-yl)ethyl]-6-chloro-3-ethoxy-2-[1-(2,2,2-trifluoroethyl)azetidin-3-yl]benzonitrile]	≤ 10
CCOc1c(C(C)n2nc(CO)c3c(N)ncnc32)cc(Cl)c(C)c1-c1ccc(C(=O)N(C)C)nc1 (racemic) [Example 83, 5-(3-{1-[4-Amino-3-(hydroxymethyl)-1H-pyrazolo[3,4-d]pyrimidin-1-yl]ethyl}-5-chloro-2-ethoxy-6-methylphenyl)-N,N-dimethylpyridine-2-carboxamide bis(trifluoroacetate)]	≤ 10
CCOc1c(C(C)n2nc(C)c3c(N)ncnc32)cc(Cl)c(C#N)c1C1CN(C(=O)NC)C1 (stereo not shown) [Example 257, 3-{3-[1-(4-Amino-3-methyl-1H-pyrazolo[3,4-d]pyrimidin-1-yl)ethyl]-5-chloro-6-cyano-2-ethoxyphenyl}-N-methylazetidine-1-carboxamide]	≤ 10
COc1c(C(C)n2nc(C)c3c(N)ncnc32)cc(Cl)c(C#N)c1C1CN(C2CCC2)C1 (single isomer, unassigned) [Example 267, 4-[1-(4-Amino-3-methyl-1H-pyrazolo[3,4-d]pyrimidin-1-yl)ethyl]-6-chloro-2-(1-cyclobutylazetidin-3-yl)-3-methoxybenzonitrile]	≤ 10
CCOc1c(C(C)n2nc(C)c3c(N)ncnc32)cc(Cl)c(C#N)c1C1CN(C(=O)N(C)C)C1 (single isomer, unassigned) [Example 259, 3-{3-[1-(4-Amino-3-methyl-1H-pyrazolo[3,4-d]pyrimidin-1-yl)ethyl]-5-chloro-6-cyano-2-ethoxyphenyl}-N,N-dimethylazetidine-1-carboxamide]	≤ 10
CCOc1c(C(C)n2nc(C)c3c(N)ncnc32)cc(Cl)c(C)c1-c1cnn(CC(=O)NC)c1 (single isomer, unassigned) [Example 204, 2-(4-(3-(1-(4-amino-3-methyl-1H-pyrazolo[3,4-d]pyrimidin-1-yl)ethyl)-5-chloro-2-ethoxy-6-methylphenyl)-1H-pyrazol-1-yl)-N-methylacetamide]	≤ 10
COc1c(C(C)n2ccc(=O)c3c(N)ncnc32)cc(Cl)c(C)c1-c1cncc(S(C)(=O)=O)c1 (racemic) [Example 26, 4-Amino-8-(1-{5-chloro-2-methoxy-4-methyl-3-[5-(methylsulfonyl)pyridin-3-yl]phenyl}ethyl)pyrido[2,3-d]pyrimidin-5(8H)-one bis(trifluoroacetate)]	≤ 10
CCOc1c(C(C)n2ccc(=O)c3c(N)ncnc32)cc(Cl)c(C)c1C1CN(C(C)C)C1 (racemic) [Example 35, 4-Amino-8-{1-[5-chloro-2-ethoxy-3-(1-isopropylazetidin-3-yl)-4-methylphenyl]ethyl}pyrido[2,3-d]pyrimidin-5(8H)-one bis(trifluoroacetate)]	≤ 10
CCOc1c(C(C)n2nc(CN(C)C)c3c(N)ncnc32)cc(Cl)c(C)c1-c1ccc(C(=O)N(C)C)nc1 (racemic) [Example 85, 5-[3-(1-{4-Amino-3-[(dimethylamino)methyl]-1H-pyrazolo[3,4-d]pyrimidin-1-yl}ethyl)-5-chloro-2-ethoxy-6-methylphenyl]-N,N-dimethylpyridine-2-carboxamide tris(trifluoroacetate)]	50 to 200
CCOc1c(C(C)n2nc(C)c3c(N)ncnc32)cc(Cl)c(F)c1C1CNC(=O)C1 (single isomer, unassigned) [Example 345, 4-{3-[1-(4-amino-3-methyl-1H-pyrazolo[3,4-d]pyrimidin-1-yl)ethyl]-5-chloro-2-ethoxy-6-fluorophenyl}pyrrolidin-2-one]	50 to 200
CCOc1c(C(C)n2nc(C)c3c(N)ncnc32)cc(Cl)c(F)c1C1CNC(=O)C1 (single isomer, unassigned) [Example 348, 4-{3-[1-(4-amino-3-methyl-1H-pyrazolo[3,4-d]pyrimidin-1-yl)ethyl]-5-chloro-2-ethoxy-6-fluorophenyl}pyrrolidin-2-one]	50 to 200
CCOc1c(C(C)n2nc(C)c3c(N)ncnc32)cc(Cl)c(C#N)c1C1CN(C(C)=O)C1 (single isomer, unassigned) [Example 242, 2-(1-Acetylazetidin-3-yl)-4-[1-(4-amino-3-methyl-1H-pyrazolo[3,4-d]pyrimidin-1-yl)ethyl]-6-chloro-3-ethoxybenzonitrile]	≤ 10
COc1c(C(C)n2nc(C)c3c(N)ncnc32)cc(Cl)c(C#N)c1C1CN(S(=O)(=O)C2CC2)C1 (single isomer, unassigned) [Example 288, 4-[1-(4-Amino-3-methyl-1H-pyrazolo[3,4-d]pyrimidin-1-yl)ethyl]-6-chloro-2-[1-(cyclopropylsulfonyl)azetidin-3-yl]-3-methoxybenzonitrile]	≤ 10
CCOc1c(C(C)n2nc(C)c3c(N)ncnc32)cc(Cl)c(C#N)c1C1CN(CC(C)(C)O)C1 (stereo not shown) [Example 222, 4-[1-(4-Amino-3-methyl-1H-pyrazolo[3,4-d]pyrimidin-1-yl)ethyl]-6-chloro-3-ethoxy-2-[1-(2-hydroxy-2-methylpropyl)azetidin-3-yl]benzonitrile]	≤ 10
CCOc1c(C(C)n2nc(-c3ccc(C(=O)N(C)C)nc3)c3c(N)ncnc32)cc(Cl)c(C)c1-c1ccc(C(=O)N(C)C)nc1 (racemic) [Example 56, 5-{4-amino-1-[1-(5-chloro-3-{6-[(dimethylamino)carbonyl]pyridin-3-yl}-2-ethoxy-4-methylphenyl)ethyl]-1H-pyrazolo[3,4-d]pyrimidin-3-yl}-N,N-dimethylpyridine-2-carboxamide tris(trifluoroacetate)]	10 to 50
COc1c(C(C)n2nc(C)c3c(N)ncnc32)cc(Cl)c(C)c1C1CN(C(=O)c2cnoc2C)C1 (single isomer, unassigned) [Example 120, 1-[1-(5-Chloro-2-methoxy-4-methyl-3-{1-[(5-methylisoxazol-4-yl)carbonyl]azetidin-3-yl}phenyl)ethyl]-3-methyl-1H-pyrazolo[3,4-d]pyrimidin-4-amine]	≤ 10
COc1c(C(C)n2nc(C)c3c(N)ncnc32)cc(Cl)c(C)c1-c1cncnc1 (single isomer, unassigned) [Example 168, 1-(1-(5-chloro-2-methoxy-4-methyl-3-(pyrimidin-5-yl)phenyl)ethyl)-3-methyl-1H-pyrazolo[3,4-d]pyrimidin-4-amine]	≤ 10
CCOc1c(C(C)n2nc(C)c3c(N)ncnc32)cc(Cl)c(F)c1C1CNC(=O)O1 (single isomer, unassigned) [Example 358, 5-{3-[1-(4-amino-3-methyl-1H-pyrazolo[3,4-d]pyrimidin-1-yl)ethyl]-5-chloro-2-ethoxy-6-fluorophenyl}-1,3-oxazolidin-2-one]	> 500
CCOc1c(C(C)n2nc(C)c3c(N)ncnc32)cc(Cl)c(C#N)c1C1CN(CCOC)C1 (stereo not shown) [Example 225, 4-[1-(4-Amino-3-methyl-1H-pyrazolo[3,4-d]pyrimidin-1-yl)ethyl]-6-chloro-3-ethoxy-2-[1-(2-methoxyethyl)azetidin-3-yl]benzonitrile]	≤ 10
CCOc1c(C(C)n2nc(C)c3c(N)ncnc32)cc(C)c(C#N)c1C1CN(CCO)C1 (single isomer, unassigned) [Example 327, 4-[-1-(4-amino-3-methyl-1H-pyrazolo[3,4-d]pyrimidin-1-yl)ethyl]-3-ethoxy-2-[1-(2-hydroxyethyl)azetidin-3-yl]-6-methylbenzonitrile]	≤ 10
